Here are results for 35 compounds from ChEMBL document CHEMBL5505974, “Design, synthesis, and bioactivity evaluation of novel indole-selenide derivatives as P-glycoprotein inhibitors against multi-drug resistance in MCF-7/ADR cell” (Eur J Med Chem, 2024).

Active and inactive are the calls of the source. The rule behind the calls is not given here.

The test system of data set [1] is NCI/ADR-RES. The experiment in a line: Reversal fold, ratio of doxorubicin IC50 to doxorubicin IC50 in presence of test compound for reversal of P-gp mediated multidrug resistance in doxorubicin resistant human MCF-7/ADR cells incubated for 48 hrs by CCK-8 assay. Format: functional.
For data set [2], the system named is NCI/ADR-RES. The experiment in a line: Cytotoxicity against doxorubicin resistant human MCF-7/ADR cells assessed as inhibition rate at 5 uM incubated for 48 hrs by CCK8 assay relative to control. It counts as functional. In general terms: Tetrazolium dyes change colour on reduction, which living cells bring about.
In data set [3] the test system is MCF7. The experiment in a line: Cytotoxicity against chemo-sensitive human MCF7 cells assessed as inhibition rate at 5 uM incubated for 48 hrs by CCK8 assay relative to control. It counts as functional.
In data set [4] the target is T1, ATP-dependent translocase ABCB1 (Homo sapiens, UniProt P08183). The experiment in a line: Inhibition of P-gp in doxorubicin resistant human MCF-7/ADR cells assessed as increase in UIC-2 binding to cell at 50 uM incubated for 10 mins by UIC-2 reactivity shift assay. It counts as cell-based.
Data set [5] concerns NCI/ADR-RES. The experiment in a line: Effect on P-gp expression level in doxorubicin-resistant human MCF-7/ADR cells at 0.5 to 5 uM incubated for 48 hrs by Western blot analysis. Format: functional, cell-based. The following applies: dose 0.5-5 µM. Background: In western blotting, separated proteins are transferred to a membrane and probed.
The target in data set [6] is T1, ATP-dependent translocase ABCB1. The experiment in a line: Inhibition of P-gp-mediated rhodamine-123 efflux in doxorubicin-resistant human MCF-7/ADR cells assessed as increase in Rh123 accumulation incubated for 4 hrs by fluorescence microscopic analysis. It counts as cell-based. The following applies: at 0.1 to 10 µM, dose 0.1-10 µM.

T1 sequence (P08183 whole entry): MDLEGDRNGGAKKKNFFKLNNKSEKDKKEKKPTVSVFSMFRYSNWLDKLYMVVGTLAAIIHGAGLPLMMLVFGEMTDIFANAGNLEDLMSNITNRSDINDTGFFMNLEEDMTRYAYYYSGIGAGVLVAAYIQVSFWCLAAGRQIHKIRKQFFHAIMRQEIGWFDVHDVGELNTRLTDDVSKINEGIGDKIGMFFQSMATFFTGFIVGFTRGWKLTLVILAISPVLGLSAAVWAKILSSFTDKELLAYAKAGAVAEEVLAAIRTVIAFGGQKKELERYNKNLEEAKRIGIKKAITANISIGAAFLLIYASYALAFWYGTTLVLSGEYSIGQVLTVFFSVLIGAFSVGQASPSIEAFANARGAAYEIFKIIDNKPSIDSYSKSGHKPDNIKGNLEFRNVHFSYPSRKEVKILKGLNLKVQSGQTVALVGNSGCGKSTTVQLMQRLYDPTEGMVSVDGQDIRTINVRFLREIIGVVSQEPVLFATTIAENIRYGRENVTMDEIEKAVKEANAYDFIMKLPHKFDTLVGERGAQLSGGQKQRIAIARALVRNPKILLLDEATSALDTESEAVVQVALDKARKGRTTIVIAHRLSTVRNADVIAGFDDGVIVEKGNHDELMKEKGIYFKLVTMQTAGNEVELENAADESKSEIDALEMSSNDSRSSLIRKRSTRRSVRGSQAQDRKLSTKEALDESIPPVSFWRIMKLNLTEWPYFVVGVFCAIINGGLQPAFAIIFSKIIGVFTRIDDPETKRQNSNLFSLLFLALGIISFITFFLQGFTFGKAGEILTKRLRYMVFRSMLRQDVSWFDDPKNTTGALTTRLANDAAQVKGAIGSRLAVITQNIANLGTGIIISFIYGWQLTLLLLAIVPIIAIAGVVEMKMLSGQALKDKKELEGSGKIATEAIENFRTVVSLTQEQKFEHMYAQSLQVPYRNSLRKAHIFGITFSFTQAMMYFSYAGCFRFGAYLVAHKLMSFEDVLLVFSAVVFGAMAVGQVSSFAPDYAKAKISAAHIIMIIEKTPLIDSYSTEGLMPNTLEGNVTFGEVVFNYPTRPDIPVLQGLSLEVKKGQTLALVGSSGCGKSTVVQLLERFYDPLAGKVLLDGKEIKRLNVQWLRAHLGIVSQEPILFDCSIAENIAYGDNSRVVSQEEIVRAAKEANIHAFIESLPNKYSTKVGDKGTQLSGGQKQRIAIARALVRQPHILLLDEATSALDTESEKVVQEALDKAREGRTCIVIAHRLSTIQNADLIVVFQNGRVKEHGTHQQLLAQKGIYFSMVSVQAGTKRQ

By inhibition is commonly meant the drop in the measured response relative to a control, in per cent. For the compound `COc1cc2c(cc1OC)CN(C(=O)c1cccc([Se]c3c[nH]c4ccc(F)cc34)c1)CC2`, the “Ratio IC50” value in data set [1] stood at 95.1. The inhibition at 5 µM amounted to 26% in data set [2] and 17.4% in data set [3].

`CNC(=O)c1ccc2c([Se]c3cccc(C(=O)NCc4ccccn4)c3)c[nH]c2c1`: the “Ratio IC50” value in data set [1] stood at 1.2. For the same compound, the inhibition at 5 µM turned out to be 10.8% in data set [2] and 13.3% in data set [3].

Turning to `COc1ccc(NC(=O)c2cccc([Se]c3c[nH]c4ccccc34)c2)cc1OC`, the “Ratio IC50” value in data set [1] is listed as 5.67. The inhibition at 5 µM in data set [2] was 9.2%; in data set [3] it was 5.2%.

On to `C/C=C/C[C@@H](C)[C@@H](O)[C@H]1C(=O)N[C@@H](CC)C(=O)N(C)CC(=O)N(C)[C@@H](CC(C)C)C(=O)N[C@@H](C(C)C)C(=O)N(C)[C@@H](CC(C)C)C(=O)N[C@@H](C)C(=O)N[C@H](C)C(=O)N(C)[C@@H](CC(C)C)C(=O)N(C)[C@@H](CC(C)C)C(=O)N(C)[C@@H](C(C)C)C(=O)N1C` [CYCLOSPORINE], for which, in data set [2], the inhibition at 5 µM was 25.6%.

`COc1ccc(CNC(=O)c2ccc([Se]c3c[nH]c4ccccc34)cc2)cc1OC`: the “Ratio IC50” value in data set [1] was determined as 3.61. Further, the values for the inhibition at 5 µM in data set [2] and in data set [3] were 18.3% and 11.9%, respectively.

With `CN(C)CCNC(=O)c1ccc2[nH]cc([Se]c3cccc(C(=O)NCc4ccccn4)c3)c2c1`, the “Ratio IC50” value in data set [1] was 3.6. Moreover, the values for the inhibition at 5 µM in data set [2] and in data set [3] were 20.9% and 15.5%, respectively.

Regarding `COc1ccc(NC(=O)c2ccc([Se]c3c[nH]c4ccccc34)cc2)cc1OC`, in data set [1], the “Ratio IC50” value was 3.98. Further, the inhibition at 5 µM worked out at 7.3% in data set [2] and 5.5% in data set [3].

Turning to `O=C(NCc1ccccn1)c1cccc([Se]c2c[nH]c3ccc(C(=O)Nc4ccc(F)cc4)cc23)c1`, the “Ratio IC50” value in data set [1] is reported as 2.7. In addition, the inhibition at 5 µM in data set [2] was found to be 10.1%; in data set [3] it was 7%.

`COc1ccc(CNC(=O)c2cccc([Se]c3c[nH]c4ncccc34)c2)cc1OC`: the “Ratio IC50” value in data set [1] came to 4. The figures for the inhibition at 5 µM in data set [2] and in data set [3] were 13.4% and 15.7%, respectively.

With `COc1ccc(Cn2cc([Se]c3cccc(C(=O)Nc4ccc(OC)c(OC)c4)c3)c3ccccc32)cc1`, the “Ratio IC50” value in data set [1] is on record as 16.4. Also, the inhibition at 5 µM in data set [2] turned out to be 7%; in data set [3] it was 4.2%.

`O=C(NCc1ccccn1)c1cccc([Se]c2c[nH]c3ccccc23)c1`: in data set [1], the “Ratio IC50” value is 8.49. Besides, the figures for the inhibition at 5 µM in data set [2] and in data set [3] were 15.1% and 17.5%, respectively.

Turning to `O=C(NCc1ccccn1)c1cccc([Se]c2c[nH]c3ccc(F)cc23)c1`, in data set [1], the “Ratio IC50” value was 2.7. Besides, the inhibition at 5 µM was found to be 13.5% in data set [2] and 3.6% in data set [3].

`COc1cc2c(cc1OC)CN(C(=O)c1cccc([Se]c3c[nH]c4ccccc34)c1)CC2`: in data set [1], the “Ratio IC50” value was 4.12. Moreover, the inhibition at 5 µM in data set [2] was 11.2%; in data set [3], 1.8%.

`COc1ccc(NC(=O)c2ccc3[nH]cc([Se]c4cccc(C(=O)N5CCc6cc(OC)c(OC)cc6C5)c4)c3c2)cc1`: in data set [1], the “Ratio IC50” value amounted to 9.1. For the same compound, the results for the inhibition at 5 µM in data set [2] and in data set [3] were 8.7% and 5.9%, respectively.

As to `COc1ccc(Cn2cc([Se]c3cccc(C(=O)N4CCc5cc(OC)c(OC)cc5C4)c3)c3ccccc32)cc1`, the “Ratio IC50” value in data set [1] amounted to 25.8. Also, the inhibition at 5 µM is 4.7% in data set [2] and 10.5% in data set [3].

Regarding `O=C(NCc1ccccn1)c1cccc([Se]c2c[nH]c3ncccc23)c1`, in data set [1], the “Ratio IC50” value is reported as 2. Further, the inhibition at 5 µM in data set [2] turned out to be 3%; in data set [3], 1%.

On to `COc1ccc(NC(=O)c2ccc3[nH]cc([Se]c4cccc(C(=O)NCc5ccccn5)c4)c3c2)cc1`, for which the “Ratio IC50” value in data set [1] turned out to be 4.4. Besides, the inhibition at 5 µM in data set [2] worked out at 9%; in data set [3] it was 6.6%.

In the case of `COc1cc2c(cc1OC)CN(C(=O)c1ccc([Se]c3c[nH]c4ccccc34)cc1)CC2`, the “Ratio IC50” value in data set [1] worked out at 3.06. Further, the inhibition at 5 µM came out at 3.2% in data set [2] and 1.2% in data set [3].

For `COc1ccc(CNC(=O)c2cccc([Se]c3c[nH]c4ccccc34)c2)cc1OC`, in data set [1], the “Ratio IC50” value is on record as 2.4. Moreover, the inhibition at 5 µM in data set [2] is 15.4%; in data set [3] it was 8.6%.

In the case of `COc1ccc(NC(=O)c2ccc3[nH]cc([Se]c4cccc(C(=O)Nc5ccc(OC)c(OC)c5)c4)c3c2)cc1`, in data set [1], the “Ratio IC50” value is given as 5.2. The values for the inhibition at 5 µM in data set [2] and in data set [3] were 1.7% and 5.2%, respectively.

Regarding `COc1cc2c(cc1OC)CN(C(=O)c1cccc([Se]c3c[nH]c4ccc(C(=O)NC(C)C)cc34)c1)CC2`, the “Ratio IC50” value in data set [1] came to 3.9. Further, the inhibition at 5 µM in data set [2] amounted to 13%; in data set [3], 11.2%.

Take `CNC(=O)c1cccc2c([Se]c3cccc(C(=O)NCc4ccccn4)c3)c[nH]c12`: the “Ratio IC50” value in data set [1] is listed as 2. Besides, the values for the inhibition at 5 µM in data set [2] and in data set [3] were 13.2% and 9.2%, respectively.

On to `COc1cc2c(cc1OC)CN(CCc1ccc(NC(=O)c3cc(OC)c(OC)cc3NC(=O)c3cnc4ccccc4c3)cc1)CC2`, for which, in data set [1], the “Ratio IC50” value was determined as 261.6. Moreover, the inhibition at 5 µM amounted to 45.1% in data set [2] and 36.9% in data set [3].

On to `CNC(=O)c1ccc2[nH]cc([Se]c3cccc(C(=O)NCc4ccccn4)c3)c2c1`, for which the “Ratio IC50” value in data set [1] came to 5.7. Besides, the inhibition at 5 µM in data set [2] stood at 12.8%; in data set [3], 15.1%.

`COc1cc2c(cc1OC)CN(C(=O)c1cccc([Se]c3c[nH]c4ccc(-c5cnn(C)c5)cc34)c1)CC2`: the “Ratio IC50” value in data set [1] was 271.7. The figures for the inhibition at 5 µM in data set [2] and in data set [3] were 33.7% and 21.1%, respectively. Further, the “inhibition (INH)” value in data set [4] is given as “Active”; in data set [6], “Dose-Dependent Effect”. Also, the result in data set [5] was inactive.

Take `COc1cc2c(cc1OC)CN(C(=O)c1cccc([Se]c3c[nH]c4ncccc34)c1)CC2`: the “Ratio IC50” value in data set [1] is 2.8. For the same compound, the inhibition at 5 µM in data set [2] was found to be 5.8%; in data set [3] it was 7.7%.

For `COc1ccc(NC(=O)c2cccc([Se]c3c[nH]c4ncccc34)c2)cc1OC`, in data set [1], the “Ratio IC50” value worked out at 4.2. Moreover, the inhibition at 5 µM came out at 2% in data set [2] and 6.3% in data set [3].

Regarding `COc1cc2c(cc1OC)CN(C(=O)c1cccc([Se]c3c[nH]c4ccc(C(=O)Nc5ccc(F)cc5)cc34)c1)CC2`, in data set [1], the “Ratio IC50” value is 6.9. For the same compound, the inhibition at 5 µM in data set [2] was found to be 1.3%; in data set [3], 9.6%.

In the case of `COc1cc2c(cc1OC)CN(C(=O)c1cccc([Se]c3c[nH]c4ccc(C(=O)NCCN(C)C)cc34)c1)CC2`, the “Ratio IC50” value in data set [1] came out at 7.5. Further, the inhibition at 5 µM is 13.6% in data set [2] and 9.7% in data set [3].

Regarding `CNC(=O)c1ccc2[nH]cc([Se]c3cccc(C(=O)N4CCc5cc(OC)c(OC)cc5C4)c3)c2c1`, the “Ratio IC50” value in data set [1] was 5.1. In addition, the results for the inhibition at 5 µM in data set [2] and in data set [3] were 9.4% and 1.2%, respectively.

For the compound `COc1ccc(NC(=O)c2cccc([Se]c3c[nH]c4ccc(-c5cnn(C)c5)cc34)c2)cc1OC`, the “Ratio IC50” value in data set [1] is on record as 98.4. For the same compound, the inhibition at 5 µM in data set [2] was determined as 47%; in data set [3] it was 35.6%.

Consider `COc1cc2c(cc1OC)CN(C(=O)c1cccc(Sc3c[nH]c4ccc(-c5cnn(C)c5)cc34)c1)CC2`, for which the “Ratio IC50” value in data set [1] was determined as 46.3. The inhibition at 5 µM in data set [2] amounted to 19.6%; in data set [3], 22.7%.

As for `O=C(NCc1ccccn1)c1ccc([Se]c2c[nH]c3ccccc23)cc1`, the “Ratio IC50” value in data set [1] came to 1.65. In addition, the inhibition at 5 µM in data set [2] worked out at 2.2%; in data set [3], 0.2%.

Consider `COc1ccc(-c2ccc(C(=O)N3CCc4cc(OC)c(OC)cc4C3)o2)cc1`, for which the “Ratio IC50” value in data set [1] was 23.7. Further, the inhibition at 5 µM in data set [2] was 16.3%; in data set [3], 11.7%.

With `COc1ccc(CCN(C)CCCC(C#N)(c2ccc(OC)c(OC)c2)C(C)C)cc1OC` (centres undefined), the inhibition at 5 µM in data set [3] is 8.3%.
